Experimental data reported in article PMC10968976, “Targeting CDK9 in Cancer: An Integrated Approach of Combining In Silico Screening with Experimental Validation for Novel Degraders” (Current Issues in Molecular Biology, 2024).
pEC50: −log10 of the molar value. Like-named read-outs stand apart in the source and are kept apart here.

Tests used:
MIA-PaCa-2 cells = assay: Cell viability (cell-titer-glo), MIA-PaCa-2; format: cell-based; conditions: MIA-PaCa 2 cell line, 48 to 72 h, read-out: Estimated EC50
Experimental: (§1) The cell lines used in this study were purchased from ATCC (https://www.atcc.org, accessed on 18 December 2023) and maintained under standard conditions at 37 °C with a 5% CO2 atmosphere. NCI-H-358 cells were cultivated in 1X RPMI 1640 medium, while MIA-PaCa2 cells were cultured using 1X DMEM. Both culture media were supplemented with 10% fetal bovine serum and 1X Penicillin/Streptomycin (Gibco). For culturing the Melma-3M cells, IMDM media fortified with 20% fetal bovine serum and 1X Penicillin/Streptomycin was used. […]
(§2) Briefly, for cell viability experiments, after splitting, cells from each respective cell line were plated onto 96-well plates (MSP, Cat # CT-229185) at a density of about 1 × 10^4 cells/mL and 200 µL per well using the appropriate cell culture media after about 24 h at 37 °C, the cell media in each 96-well plate were replaced with media containing the various test compounds at varying concentrations. […] Each plate was gently mixed for ca. 10 min at room temperature and then transferred to a plate reader (Bio-Tek, Synergy HTX, Winooski, VT, USA, multimode reader) for chemiluminescence measurement as a proportional indicator of cell viability.
(§3) TB003 and TB008 have also been evaluated for cell growth inhibition and killing using two cell lines, NCI-H358, a non-small cell lung carcinoma-derived cell line, and MIA-PaCa-2, a pancreatic carcinoma-derived cell line. […]

NCI-H358 cells = assay: Cell viability (cell-titer-glo), NCI-H358; format: cell-based; conditions: Homo sapiens, NIH H-358 cell line, 48 to 72 h, read-out: Estimated EC50
Experimental: as §1, §2, §3

pEC50 (NCI-H358 cells) | pEC50 (MIA-PaCa-2 cells; Homo sapiens) | Structure (SMILES) | pEC50 (MIA-PaCa-2 cells)
– | – | O=C1[O][Pt]2([NH][C@@H]3CCCC[C@H]3[NH]2)[O]C1=O [Oxaliplatin, oxaliplatin] | 4.00
4.12 | 5.00 | CC(=O)O[C@H]1C(=O)[C@@]2(C)[C@H]([C@H](OC(=O)c3ccccc3)[C@]3(O)C[C@H](OC(=O)[C@H](O)[C@@H](NC(=O)c4ccccc4)c4ccccc4)C(C)=C1C3(C)C)[C@]1(OC(C)=O)CO[C@@H]1C[C@@H]2O [Paclitaxel, paclitaxel] | –
